Measured values from patent US7241757B2, “Amidino derivatives and their use as thrombin inhibitors” (AstraZeneca AB, priority 2000, dated 2007).

Key:
Human thrombin = biological target: T1, Human thrombin (Homo sapiens, UniProt P00734); experiment: Test A: Determination of Thrombin Clotting Time (TT); type: biochemical; conditions: concentration of inhibitor that doubles the thrombin clotting time for human plasma
T1 construct: conversion of the proenzyme prothrombin to the active enzyme thrombin; purchased Sigma Chem. Co T 6769
Procedure: Determination of Thrombin Clotting Time (TT)
The inhibitor solution (25 μL) was incubated with plasma (25 μL) for three minutes. Human thrombin (T 6769; Sigma Chem. Co) in buffer solution, pH 7.4 (25 μL) was then added and the clotting time measured in an automatic device (KC 10; Amelung).
The clotting time in seconds was plotted against the inhibitor concentration, and the IC50TT was determined by interpolation.
IC50TT is the concentration of inhibitor in the test that doubles the thrombin clotting time for human plasma.

[1] = rat, in vivo
Source text: Determination of Thrombin Time Ex Vivo
The inhibition of thrombin after oral or parenteral administration of the compounds of formula I, dissolved in ethanol:Solutol™:water (5:5:90), were examined in conscious rats which, one or two days prior to the experiment, were equipped with a catheter for blood sampling from the carotid artery. On the experimental day blood samples were withdrawn at fixed times after the administration of the compound into plastic tubes containing 1 part sodium citrate solution (0.13 mol per L) and 9 parts of blood. The tubes were centrifuged to obtain platelet poor plasma. The plasma was used for determination of thrombin time as described below.
The citrated rat plasma, 100 μL, was diluted with a saline solution, 0.9%, 100 μL, and plasma coagulation was started by the addition of human thrombin (T 6769, Sigma Chem Co, USA) in a buffer solution, pH 7.4, 100 μL. The clotting time was measured in an automatic device (KC 10, Amelumg, Germany). […]
Based on the estimated plasma concentrations of the active thrombin inhibitor (which assumes that thrombin time prolongation is caused by the aforementioned compound) in the rat, the area under the curve after oral and/or parenteral administration of the corresponding prodrug compound of formula I was calculated (AUCpd) using the trapezoidal rule and extrapolation of data to infinity. […]

| SMILES | IC50 (Human thrombin) [nM] | oral and/or parenteral bioavailability as the corresponding active inhibitor (free amidine) [1] |
| --- | --- | --- |
| N=C(N)c1ccc(CNC(=O)C2CCN2C(=O)C2(O)CCOc3c(OC(F)F)cc(Cl)cc32)cc1 (single isomer, unassigned) [Example 8, (S)- or (R)-4-Hydroxy-6-chloro-8-difluoromethoxychroman-4-yl-C(O)-Aze-Pab×HOAc] | < 100 | – |
| CON=C(N)c1ccc(CNC(=O)[C@@H]2CCN2C(=O)C2(O)CCOc3c(OC(F)(F)F)cc(Cl)cc32)cc1 (stereo partly shown) [Example 7, 4-Hydroxy-6-chloro-8-trifluoromethoxychroman-4-yl-C(O)-Aze-Pab(OMe)] | – | exhibit oral and/or parenteral bioavailability |
| N=C(N)c1ccc(CNC(=O)C2CCN2C(=O)C2(O)CCOc3c(OC(F)(F)F)cc(Cl)cc32)cc1 (stereo not shown) [Example 6, 4-Hydroxy-6-chloro-8-trifluoromethoxychroman-4-yl-C(O)-Aze-Pab] | < 100 | – |
| CON=C(N)c1ccc(CNC(=O)[C@@H]2CCN2C(=O)C2(O)CCOc3c(OC(F)F)cc(Cl)cc32)cc1 (single isomer, unassigned) [Example 9, (S)- or (R)-4-Hydroxy-6-chloro-8-difluoromethoxychroman-4-yl-C(O)-Aze-Pab(OMe)] | – | exhibit oral and/or parenteral bioavailability |
